# Measured values reported in article PMC8087847, “Effects of self-assembled cell-penetrating peptides and their nano-complexes on ABCB1 expression and activity” (Iranian Journal of Basic Medical Sciences, 2021).
# Entries after “also recorded” stand apart in the source; their conditions may differ. Read-outs that look alike come from different tables or passages of the source. No end group written: not given here.
# Legend:
# A549 Dox-resistant cells [1] = experiment: MTT cell viability, effect of CPPs on Dox cytotoxicity
# Procedure: (§1) A549 cell line is derived from a drug-resistant human lung carcinoma tissue and adherent in culture. […] It was cultured in RPMI-1640 medium supplemented with 10% FBS, 100 units/ml penicillin, and 100 µg/ml streptomycin at 37 °C in 5% CO2 a humidified atmosphere. Moreover, to develop resistance, 0.1 µM Dox was added to the medium which was not toxic to the cells.
# (§2) Cells were detached from flasks by trypsin and seeded in 96-well plates with a cell density of 1.5×10^4 cells/well (containing 200 μl/well of medium) and incubated for 24 hr at 37 °C in a humidified atmosphere of 5% CO2. The next day, cells were treated with different concentrations of peptides (15, 25, 50 μM), and incubated at the same condition for 24 hr. […] Data were collected from at least 3 independent experiments performed in triplicates and analyzed using the Graphpad Prism 7 software package.
# A549 cells [2] = experiment: Cellular uptake of FAM-labeled peptides by flow cytometry; conditions: different concentrations, comparison stated in discussion
# Procedure: (§3) First, cells were seeded in 6-well plates (3×10^5 cells/well) and incubated for 24 hr. Then the medium was removed and cells were washed with PBS. FAM-labeled peptides and nano-complexes were added to wells and incubation was continued for 90 min. The old medium was removed and cells were washed with PBS three times and detached by trypsin/EDTA. Then 2 ml of medium was added to each well, and cells were centrifuged for 5 min, followed by washing three times with PBS and finally suspended in flow cytometry buffer to study the cellular uptake of FAM-labeled peptides and nano-complexes.
# A549 cells [3] = tested on: A549 cells
# Procedure: as §3
# A549 Dox-resistant cells [4] = tested on: A549 Dox-resistant cells
# Procedure: as §1, §2
molecule,measurement,setting,value
"COc1cccc2c1C(=O)c1c(O)c3c(c(O)c1C2=O)C[C@@](O)(C(=O)CO)C[C@@H]3O[C@H]1C[C@H](N)[C@H](O)[C@H](C)O1 [Dox, Doxorubicin, reference compound]",IC50,"A549 Dox-resistant cells [1]; Homo sapiens, A549, read-out: IC50 of Dox",20 µM
N=C(N)NCCC[C@H](NC(=O)[C@H](CCCNC(=N)N)NC(=O)[C@H](CCCNC(=N)N)NC(=O)[C@H](CCCNC(=N)N)NC(=O)[C@H](CCCNC(=N)N)NC(=O)[C@H](CCCNC(=N)N)NC(=O)[C@H](CCCNC(=N)N)NC(=O)[C@H](CCCNC(=N)N)NC(=O)[C@H](CCCNC(=N)N)NC(=O)[C@@H](N)CCCNC(=N)N)C(=O)O [Peptide P7],effect on Dox cytotoxicity,"A549 Dox-resistant cells [1]; 25 µM and 50 µM peptide, 20 µM Dox, 24 hr (Figure 3a), MTT",resulted in Dox cytotoxicity; also recorded: increased the Dox toxicity
same,effect on cytotoxicity of Dox,"A549 Dox-resistant cells [1]; 50 µM peptide, 20 µM Dox, after 48 hr (Figure 3b), MTT",increased the cytotoxicity of Dox
same,effect on Dox cytotoxicity,"A549 Dox-resistant cells [1]; after 48 hr, peptide concentration not stated (abstract)",increased Dox cytotoxicity
same,"cellular uptake (discussion, method not specified)",A549 cells [2],higher uptake efficacy
KKKKKKKKKK [Peptide P8],cell viability,"A549 Dox-resistant cells [1]; 15 µM peptide 24 hr pre-treatment, then 20 µM Dox, 24 hr, MTT, at least 3 independent experiments in triplicates",52.5%
same,"cellular uptake (discussion, method not specified)",A549 cells [3],higher uptake compared with P8/E10 nano-complexes
same,effect on Dox cytotoxicity,A549 Dox-resistant cells [4],increased Dox cytotoxicity
